Experimental data taken from patent US20230263803A1, “METHODS OF PREVENTING OR TREATING COVID-19 AND RELATED VIRAL DISEASES OR DISORDERS” (KINARUS AG, priority 2020, published 2023).

Tests used:
[1] = tested on: SARS-CoV-2PR1; test: microbe, parasite or virus in culture; type: cell-based; conditions: Vero B4 cells, 72 hrs, qRT-PCR
[2] = tested on: Vero B4 cells; conditions: 72 hrs

SMILES | inhibition at 0.1 µM ([1]; Severe acute respiratory syndrome coronavirus 2, lowest concentration tested (100 nM), read-out: inhibition of shedding of new SARS-CoV-2 viruses into culture supernatants) [%] | cellular toxicity as determined by WST assay [2] | inhibition of viral shedding ([1]; at the highest concentrations) [%]
Cn1c(=O)c(Oc2ccc(F)cc2F)cc2cnc(NC(CCO)CCO)nc21 [Pamapimod, 6-(2,4-Difluorophenoxy)-2-[3-hydroxy-1-(2-hydroxyethyl)-propylamino]-8-methyl-8H-pyrido[2,3-d]pyrimidin-7-one] | 80 | no cellular toxicity | 
CCc1ccc(CCOc2ccc(CC3SC(=O)NC3=O)cc2)nc1 (stereo not drawn) [Pioglitazone] |  |  | > 90
